{"source": "patent US11198850B2", "about": "“Method for manufacturing telencephalon or progenitor tissue thereof” (RIKEN, priority 2013, dated 2021)", "system": "hESC-derived hippocampal neurons", "assay": "Whole cell patch clamp of hippocampal neurons from dispersion culture of hESC-derived hippocampal tissue (sEPSC)", "type": "cell-based, human", "conditions": "DNQX 10 μM; voltage held at −60 mV; day 53 after dispersion", "procedure": "By a method similar to that in Example 7-1, continuous hippocampal tissues were subjected to dispersion culture. In this experiment, flat plane culture was performed by seeding on a glass or plastic dish, slide and the like. For culture, a glass or plastic surface was coated with poly-D-Lysine (100 μg/ml) at 37° C. for 3 hr, and Laminin 20 μg/ml/Fibronectin 8 μg/ml overnight at 37° C.\nThe culture medium used for day 1-2 of dispersion was Neurobasal medium (Gibco/Invitrogen) added with 2% B27 supplement without vitamin A (Gibco/Invitrogen), 2 mM L-glutamine, 1% FBS, 20 ng/ml BDNF, 20 ng/ml NT-3, and 10 μM Y-27632. From day 3 of culture, Neurobasal medium (Gibco/Invitrogen) added with 2% B27 supplement without vitamin A (Gibco/Invitrogen), 2 mM L-glutamine, 10% FBS, BDNF 20 ng/ml, and NT-3 20 ng/ml was used and a half amount of the medium was exchanged every three days. […] Also, the cells obtained by dispersion culture by the same method were electrophysiologically analyzed by the Patch clamp technique. […] For sEPSC, time-course electric current was measured when the voltage was maintained at −60 mV, and the medicament used was DNQX (sigma, D0540) at a final concentration of 10 μM. As the action potential, the membrane potential upon […] stimulation was measured.", "data": [{"smiles": "O=[N+]([O-])c1cc2nc(O)c(O)nc2cc1[N+](=O)[O-]", "note": "[DNQX]", "values": [{"measurement": "spontaneous excitatory postsynaptic current (sEPSC)", "value": "inhibited"}]}]}
